Test results: US20260209208A1, “PHENYL-PYRAZOLE CARBOXAMIDE COMPOUNDS” (Acrivon Therapeutics, Inc., priority 2022, published 2026)

Legend:
DAOY cells = experiment: Cell Titer Glo viability assay; format: cell-based; conditions: Homo sapiens, 144 hours, Cell Titer Glo 2.0
Method: DAOY medulloblastoma cell line (ATCC) was cultured in Minimum Essential Medium Eagle supplemented with 10% fetal calf serum (Sigma), 1% Penicillin-Streptomycin and 10 mM HEPES buffer (HyClone). Cell cultures were kept in a humidified incubator at 37° C. and 5% CO2. Cells were routinely tested for Mycoplasma contamination.
DAOY cells were seeded at a density of 250 cells per well in tissue culture 384 well plates (Corning Costar). After overnight incubation, cells were incubated with test compounds at concentrations ranging from 0.17 to 10,000 nM. Viability compared to untreated control was assessed at 144 hours using Cell Titer Glo® 2.0 Viability Assay (Promega).

[1] = Oral bioavailability study in mice; format: in vivo; conditions: female CD-1 mice, single IV bolus 1 mg/kg vs oral gavage 3 mg/kg, dose normalized AUC0-∞
Method: We compared the oral bioavailability of Compound 75:
(Compound A), which has a thiazolyl moiety in place of the furanyl moiety in Compound 75. Female CD-1 mice treated with a single intravenous bolus (IV; 1 mg/kg) or oral gavage (PO; 3 mg/kg) of one of the compounds. The percent bioavailability (% F) was calculated by dividing the dose normalized area under the plasma concentration curve (AUC0-∞) by the dose normalized IV plasma AUC0-∞.

Myt1 Kinase = target: T1, Myt1 Kinase (Homo sapiens, UniProt Q99640); experiment: AlphaLISA SureFire Ultra Human Phospho-CDK1 (Thr14) target engagement assay in DAOY cells; format: cell-based; conditions: 4 h incubation, Cdk1 phosphorylated on threonine 14, read-out: TE Myt1 Kinase (AlphaLISA)
T1 construct: endogenous in cells; host or cells: DAOY medulloblastoma cells (ATCC)
T1 sequence (Q99640 1-499): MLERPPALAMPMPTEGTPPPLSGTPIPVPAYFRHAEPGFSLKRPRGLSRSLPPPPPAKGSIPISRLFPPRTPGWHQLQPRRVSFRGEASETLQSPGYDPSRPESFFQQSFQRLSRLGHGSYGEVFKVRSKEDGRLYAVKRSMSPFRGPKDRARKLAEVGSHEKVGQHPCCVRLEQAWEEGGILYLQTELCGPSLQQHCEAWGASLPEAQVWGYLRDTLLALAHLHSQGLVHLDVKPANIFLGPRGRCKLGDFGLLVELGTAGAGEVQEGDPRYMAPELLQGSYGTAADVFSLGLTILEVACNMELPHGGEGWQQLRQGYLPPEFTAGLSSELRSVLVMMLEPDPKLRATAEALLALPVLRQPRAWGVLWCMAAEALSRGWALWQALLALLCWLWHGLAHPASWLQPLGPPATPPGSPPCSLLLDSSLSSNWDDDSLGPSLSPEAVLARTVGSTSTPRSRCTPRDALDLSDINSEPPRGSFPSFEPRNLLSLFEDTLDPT

[2] = target: T2, recombinant human PMYT-1 (Myt1 kinase) (Homo sapiens, UniProt Q99640); experiment: LanthaScreen Europium (Eu) Kinase Binding Assay for Myt1 kinase; conditions: TR-FRET tracer 178 displacement, GST-tagged full length PMYT-1, 60 min, room temperature; mean IC50; read-out: LANTHA Kinase Binding for PMyt1
T2 construct: full length PMYT-1 was expressed by baculovirus in insect cells using a N-terminal GST tag; purchased Invitrogen A30984; host or cells: insect cells (baculovirus)
T2 sequence (Q99640 1-499): T1 sequence (Q99640 1-499)

Compound | EC50 (DAOY cells) [nM] | Bioavailability (% F) [1] [% F] | EC50 (Myt1 Kinase) [nM] | IC50 [2] [nM]
Cc1ccc(O)c(C)c1-n1nc(-c2ccco2)c(C(N)=O)c1N [Compound 75, 5-amino-3-(2-furyl)-1-(3-hydroxy-2,6-xylyl)-4-pyrazolecarboxamide] | ≤ 500 | 64 | ≤ 250 | ≤ 10
Cc1ccc(O)c(C)c1-n1nc(-c2nccs2)c(C(N)=O)c1N [Compound 122] | ≤ 500 | 32 | ≤ 250 | ≤ 10
